Source: patent US9718781B2, “Methods and compounds for treating proliferative disorders and viral infections” (University College Dublin, National University of Ireland, …, priority 2012, dated 2017)
Where two headings read alike, the source gives them in different places.

Test system: human platelets
Assay: U46619-induced human platelet aggregation ex vivo (platelet rich plasma)
Assay type: cell-based
Source text: A modification of the turbidimetric method originally developed by Born & Cross (Born, G. V. and Cross, M. J., The Aggregation of Blood Platelets, J Physiol, 1963, 168:178-95) is used. The principle is based on the diffraction of the light by particles. When a light beam passes through a suspension of particles, it is diffracted, depending on the number and the size of the particles in suspension.
In the Born & Cross method, a light beam passes through a platelet suspension and the quantity of light is measured by a detector placed after the sample. Upon platelet aggregation, the size of platelet aggregates will increase while the total number of free platelets will decrease. Consequently, less light will be diffracted and the detector will record an increase in light intensity. The aggregometer has been developed based on these concepts. Variations in light transmission recorded by this device reflects the platelet physiology. When an agonist of platelet aggregation is added to a platelet suspension, platelets undergo activation and shape change. This step is characterized by an increase in platelet's apparent volume and thus a decrease of transmitted light. Subsequent platelet aggregation gradually forms aggregates of increasing size. Transmitted light slightly increases until a plateau is reached. The aggregation of platelet can be confirmed after the experiment by visual direct inspection of the test tube.
Preparation of platelet suspension is achieved by blood centrifugation at 160 g for 10 minutes. The PRP is re-centrifuged at 160 g for 10 min to remove contaminating red and white blood cells. The supernatant which is collected contains the platelets rich plasma (PRP). The remaining blood is subsequently centrifuged at 900 g for 15 min in order to retrieve plasma (platelets poor plasma, PPP). PRP is diluted with PPP to reach a final concentration of 150×10^3 […] PRP is kept warmed at 37° C. in the aggregometer and the adequate dilution of drug to test is introduced in the sample. Platelet aggregation is induced after 10 minutes incubation. Light transmission (T) is measured throughout the experiment, which is ended 8 minutes after induction of aggregation. Maximal light transmission (Tmax) is determined in the sample without drugs. Minimal light transmission (Tmin) is measured in PRP without inducer.
The effect of NTP4 and the previously identified lead TP antagonist, TP20, on U46619-mediated platelet aggregation in side-by-side comparisons was performed in platelet rich plasma (PRP) using the PAP-8E platelet aggregometer.
FIG. 4A-4C show the effect of TP20 & NTP4 on U46619-mediated platelet aggregation. PRP was prepared from blood taken from healthy volunteers into syringes containing 3.8% sodium citrate and 10 μM indomethacin such that the final ratio of anticoagulant to blood was 1:9. Aliquots of PRP (300 μl) were pre-incubated for 10 min with the TP antagonists, TP20 and NTP4, where 2-fold serial dilutions from 1 μM were prepared for each, prior to stimulating platelets with 1 μM U46619, incubated at 37° C., with stirring. FIG. 4A and FIG. 4B: Representative dose-response platelet aggregation profiles for TP20 (FIG. 4A) and NTP4 (FIG. 4B), where data is presented as Percentage Aggregation, as determined by changes in light transmission using the PAP-8E Platelet Aggregation Profiler as a function of time. FIG. 4C: The dose-response curves for platelet aggregation are presented as the mean (±S.E.M.) maximum Percentage Aggregation as a function of the log of the TP antagonist concentration. Data presented is representative of ≧6 independent experiments.

[1] = PRP, PAP-8E aggregometer, 1 μM U46619, side-by-side, read-out: IC50 Value for Inhibition of U46619-Mediated Platelet Aggregation (Mean ± S.E.M.)

Row | Structure (SMILES) | IC50 (Homo sapiens, Platelet, PRP, PAP-8E aggregometer, 1 μM U46619, side-by-side, read-out: IC50 Value for Inhibition of U46619-Mediated Platelet Aggregation (Mean ± S.E.M.)) [nM] | IC50 [1] [nM] | IC50 (Homo sapiens, Platelet, human platelets ex vivo, Table 3, read-out: IC50 data for inhibition of U46619-induced platelet aggregation) [nM]
1 | COc1ccc(-c2cccc(Oc3ccc(C#N)cc3S(=O)(=O)NC(=O)NC(C)(C)C)c2)cc1 [NTP4, N-(tert-butylcarbamoyl)-5-cyano-2-((4′-methoxy-[1,1′-biphenyl]-3-yl)oxy)benzenesulfonamide] | 41.5 ± 7.69 | 40.3 ± 7.08 | 
2 | COc1ccc(-c2cccc(Oc3ccc([N+](=O)[O-])cc3S(=O)(=O)NC(=O)NC(C)(C)C)c2)cc1 [TP20, N-(tert-butylcarbamoyl)-2-((4′-methoxy-[1,1′-biphenyl]-3-yl)oxy)-5-nitrobenzene-sulfonamide] |  | 4.62 ± 0.72 | 4.71
